Assay results: ChEMBL document CHEMBL1136523, “A novel estrogen receptor ligand template” (Bioorg Med Chem Lett, 2003)

Experiments:
Estrogen receptor [1] = molecular target: T1, Estrogen receptor (Homo sapiens, UniProt P03372); test: In vitro binding affinity for estrogen receptor alpha
T1 sequence (P03372 whole entry): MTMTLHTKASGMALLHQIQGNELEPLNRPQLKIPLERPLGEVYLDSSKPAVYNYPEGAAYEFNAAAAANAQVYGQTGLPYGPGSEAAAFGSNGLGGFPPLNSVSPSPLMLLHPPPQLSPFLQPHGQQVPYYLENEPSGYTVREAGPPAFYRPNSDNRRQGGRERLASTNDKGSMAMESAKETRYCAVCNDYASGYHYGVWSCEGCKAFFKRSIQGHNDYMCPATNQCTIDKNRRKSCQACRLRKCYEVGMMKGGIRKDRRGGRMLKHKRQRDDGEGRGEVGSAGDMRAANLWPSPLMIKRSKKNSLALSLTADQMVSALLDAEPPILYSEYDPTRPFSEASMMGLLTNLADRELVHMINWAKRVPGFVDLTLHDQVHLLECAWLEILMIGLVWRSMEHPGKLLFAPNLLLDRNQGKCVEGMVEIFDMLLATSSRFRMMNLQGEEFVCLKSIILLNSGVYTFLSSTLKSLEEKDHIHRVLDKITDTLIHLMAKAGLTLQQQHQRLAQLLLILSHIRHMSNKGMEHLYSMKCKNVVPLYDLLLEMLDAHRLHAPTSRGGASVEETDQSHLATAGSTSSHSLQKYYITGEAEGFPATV

Estrogen receptor [2] = molecular target: Estrogen receptor (Homo sapiens, UniProt Q92731+P03372); test: Percent agonistic activity for estrogen-induced pS2 expression in MCF-7 cells; assay type: functional, cell-based; details: mcf7
Estrogen receptor beta = Estrogen receptor beta (Homo sapiens, UniProt Q92731)
Estrogen receptor beta, sequence (Q92731 whole entry): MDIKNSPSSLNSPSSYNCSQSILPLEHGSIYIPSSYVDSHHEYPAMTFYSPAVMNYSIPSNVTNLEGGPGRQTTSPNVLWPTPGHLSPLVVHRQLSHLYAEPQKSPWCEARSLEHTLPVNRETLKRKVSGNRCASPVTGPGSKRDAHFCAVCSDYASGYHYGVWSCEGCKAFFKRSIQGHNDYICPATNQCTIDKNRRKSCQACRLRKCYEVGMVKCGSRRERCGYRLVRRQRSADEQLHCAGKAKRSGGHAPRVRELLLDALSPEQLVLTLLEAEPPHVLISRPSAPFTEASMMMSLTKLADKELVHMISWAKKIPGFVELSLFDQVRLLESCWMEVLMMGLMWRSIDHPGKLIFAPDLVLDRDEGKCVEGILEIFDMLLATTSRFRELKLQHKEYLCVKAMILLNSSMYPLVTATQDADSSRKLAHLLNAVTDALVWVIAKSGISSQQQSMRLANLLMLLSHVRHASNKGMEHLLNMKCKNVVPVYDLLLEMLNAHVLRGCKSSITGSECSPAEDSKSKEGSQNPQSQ
Description: In vitro binding affinity for estrogen receptor beta

- IC50 (Estrogen receptor [1]): 0.55 µM
- EC50 (Estrogen receptor [2]): < 0.01 µM
- IC50 (Estrogen receptor beta): 0.075 µM
SMILES: OC[C@@]12CC=C[C@@H](C1)[C@H](c1ccc(O)cc1)CC2
